Earlier results, collected in patent US20220288056A1, “PHARMACEUTICAL COMPOSITION CONTAINING NITROXOLINE, NITROXOLINE ORAL SOLID TABLET, PREPARATION METHOD THEREFOR AND USE THEREOF” (Jiangsu Yahong Meditech Co., Ltd., priority 2019, published 2022).

What was measured:
[1] = target: T1, methionine aminopeptidase MetAP2 (Homo sapiens, UniProt P50579); details: vascular endothelial cells
T1 construct: host or cells: vascular endothelial cells

[2] = target: T2, silence information regulator 2-related enzyme SIRT1 (Homo sapiens, UniProt Q96EB6); details: vascular endothelial cells
T2 construct: host or cells: vascular endothelial cells
T2 sequence (Q96EB6 1-747): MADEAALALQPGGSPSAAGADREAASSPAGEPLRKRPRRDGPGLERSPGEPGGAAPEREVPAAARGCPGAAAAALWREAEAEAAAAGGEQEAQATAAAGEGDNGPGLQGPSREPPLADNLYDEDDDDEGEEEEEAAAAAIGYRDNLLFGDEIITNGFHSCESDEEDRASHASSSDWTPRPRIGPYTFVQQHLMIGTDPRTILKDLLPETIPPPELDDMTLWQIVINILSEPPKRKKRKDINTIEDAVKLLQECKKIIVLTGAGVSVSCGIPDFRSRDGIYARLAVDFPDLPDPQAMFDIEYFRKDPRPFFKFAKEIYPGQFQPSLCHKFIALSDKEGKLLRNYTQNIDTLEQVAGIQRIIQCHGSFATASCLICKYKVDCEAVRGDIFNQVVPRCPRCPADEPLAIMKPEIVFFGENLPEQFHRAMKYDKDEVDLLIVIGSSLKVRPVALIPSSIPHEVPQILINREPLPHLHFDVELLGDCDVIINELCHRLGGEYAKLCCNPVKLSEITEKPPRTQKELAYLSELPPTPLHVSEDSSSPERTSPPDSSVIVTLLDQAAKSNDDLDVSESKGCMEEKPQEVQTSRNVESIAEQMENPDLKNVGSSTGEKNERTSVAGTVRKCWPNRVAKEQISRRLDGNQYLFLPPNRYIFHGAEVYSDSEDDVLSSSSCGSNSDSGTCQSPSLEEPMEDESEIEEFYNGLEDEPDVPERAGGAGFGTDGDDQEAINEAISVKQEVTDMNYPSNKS

T1 sequence (P50579 whole entry): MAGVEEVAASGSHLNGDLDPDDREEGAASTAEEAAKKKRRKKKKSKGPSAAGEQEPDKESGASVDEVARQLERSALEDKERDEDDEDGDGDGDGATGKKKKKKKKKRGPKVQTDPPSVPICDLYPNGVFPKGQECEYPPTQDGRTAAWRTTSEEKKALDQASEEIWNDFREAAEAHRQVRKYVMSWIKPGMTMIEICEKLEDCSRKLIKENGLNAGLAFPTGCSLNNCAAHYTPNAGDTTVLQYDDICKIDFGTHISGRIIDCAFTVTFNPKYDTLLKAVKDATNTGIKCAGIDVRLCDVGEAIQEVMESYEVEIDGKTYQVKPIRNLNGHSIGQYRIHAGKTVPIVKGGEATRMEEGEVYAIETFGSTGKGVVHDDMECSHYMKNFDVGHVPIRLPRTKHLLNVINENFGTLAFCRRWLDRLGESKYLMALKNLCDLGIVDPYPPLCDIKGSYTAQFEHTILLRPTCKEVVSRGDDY

Compound: O=[N+]([O-])c1ccc(O)c2ncccc12 [Nitroxoline, 5-nitro-8-hydroxyquinoline]
- inhibition of MetAP2 [1]: inhibit
- inhibition of SIRT1 [2]: inhibit
